From the NIST ThermoML archive (doi:10.1016/j.jct.2005.09.004)
Numbers after ± are expanded uncertainties.

What was measured:
[1] = refractive index (Na D-line) (dimensionless); φn = volume fraction of the nth substance listed; conditions: 101 kPa, Liquid, Standard Abbe refractometry
[2] = xn = mol fraction of the nth substance listed; conditions: for surface tension liquid-gas: Drop volume; for mass density: 101 kPa, Liquid

`C1CCCC1` [cyclopentane] + C1COCCO1 showed a refractive index ([1]; 283.15 K, φ2 = 0.0438) of 1.41192 ± 0.00036, a refractive index ([1]; 283.15 K, φ2 = 0.087) of 1.41201 ± 0.00036 and a refractive index ([1]; 283.15 K, φ2 = 0.1787) of 1.41266 ± 0.00035. It also gave a refractive index ([1]; 283.15 K, φ2 = 0.2781) of 1.41381 ± 0.00034, a refractive index ([1]; 283.15 K, φ2 = 0.3694) of 1.41511 ± 0.00034 and a refractive index ([1]; 283.15 K, φ2 = 0.4754) of 1.41686 ± 0.00033. The refractive index ([1]; 283.15 K, φ2 = 0.5928) was 1.41854 ± 0.00032, the refractive index ([1]; 283.15 K, φ2 = 0.7068) was 1.4208 ± 0.00032 and the refractive index ([1]; 283.15 K, φ2 = 0.7975) was 1.42271 ± 0.00032. For the same molecule, the refractive index ([1]; 283.15 K, φ2 = 0.9083) was 1.42517 ± 0.00031, the refractive index ([1]; 283.15 K, φ2 = 0.9568) was 1.42621 ± 0.00031 and the refractive index ([1]; 298.15 K, φ2 = 0.0401) was 1.40332 ± 0.00036. It also gave a refractive index ([1]; 298.15 K, φ2 = 0.0979) of 1.40358 ± 0.00036, a refractive index ([1]; 298.15 K, φ2 = 0.1873) of 1.4043 ± 0.00035 and a refractive index ([1]; 298.15 K, φ2 = 0.2827) of 1.40556 ± 0.00034. It also gave a refractive index ([1]; 298.15 K, φ2 = 0.3727) of 1.40698 ± 0.00034, a refractive index ([1]; 298.15 K, φ2 = 0.4709) of 1.40874 ± 0.00033 and a refractive index ([1]; 298.15 K, φ2 = 0.5703) of 1.41064 ± 0.00032. It also gave a refractive index ([1]; 298.15 K, φ2 = 0.6847) of 1.41303 ± 0.00032, a refractive index ([1]; 298.15 K, φ2 = 0.785) of 1.41517 ± 0.00032 and a refractive index ([1]; 298.15 K, φ2 = 0.8986) of 1.41772 ± 0.00031. For the same molecule, the refractive index ([1]; 298.15 K, φ2 = 0.9436) was 1.41867 ± 0.00031, the refractive index ([1]; 313.15 K, φ2 = 0.0434) was 1.39455 ± 0.00036 and the refractive index ([1]; 313.15 K, φ2 = 0.0858) was 1.39477 ± 0.00036. It also gave a refractive index ([1]; 313.15 K, φ2 = 0.181) of 1.3956 ± 0.00035, a refractive index ([1]; 313.15 K, φ2 = 0.2747) of 1.39691 ± 0.00034 and a refractive index ([1]; 313.15 K, φ2 = 0.3702) of 1.3985 ± 0.00034. The refractive index ([1]; 313.15 K, φ2 = 0.472) was 1.40052 ± 0.00033, the refractive index ([1]; 313.15 K, φ2 = 0.5688) was 1.40259 ± 0.00032 and the refractive index ([1]; 313.15 K, φ2 = 0.6767) was 1.40502 ± 0.00032. It also gave a refractive index ([1]; 313.15 K, φ2 = 0.7759) of 1.40729 ± 0.00032, a refractive index ([1]; 313.15 K, φ2 = 0.8977) of 1.41018 ± 0.00031 and a refractive index ([1]; 313.15 K, φ2 = 0.933) of 1.41105 ± 0.00031. It also gave a surface tension liquid-gas ([2]; 283.15 K, x2 = 0.0615) of 24.4 ± 0.3 mN/m, a surface tension liquid-gas ([2]; 283.15 K, x2 = 0.121) of 24.58 ± 0.3 mN/m and a surface tension liquid-gas ([2]; 283.15 K, x2 = 0.1824) of 24.76 ± 0.3 mN/m. It also gave a surface tension liquid-gas ([2]; 283.15 K, x2 = 0.2656) of 25.04 ± 0.3 mN/m, a surface tension liquid-gas ([2]; 283.15 K, x2 = 0.4058) of 25.63 ± 0.3 mN/m and a surface tension liquid-gas ([2]; 283.15 K, x2 = 0.5313) of 26.4 ± 0.3 mN/m. It also gave a surface tension liquid-gas ([2]; 283.15 K, x2 = 0.6376) of 27.35 ± 0.31 mN/m, a surface tension liquid-gas ([2]; 283.15 K, x2 = 0.7264) of 28.44 ± 0.32 mN/m and a surface tension liquid-gas ([2]; 283.15 K, x2 = 0.806) of 29.74 ± 0.33 mN/m. It also gave a surface tension liquid-gas ([2]; 283.15 K, x2 = 0.902) of 31.92 ± 0.35 mN/m, a surface tension liquid-gas ([2]; 283.15 K, x2 = 0.9642) of 33.79 ± 0.37 mN/m and a mass density ([2]; 283.15 K, x2 = 0.0516) of 766.94 ± 0.61 kg/m3. For the same molecule, the mass density ([2]; 283.15 K, x2 = 0.095) was 777.38 ± 0.6 kg/m3, the mass density ([2]; 283.15 K, x2 = 0.1944) was 802.55 ± 0.55 kg/m3 and the mass density ([2]; 283.15 K, x2 = 0.2987) was 830.28 ± 0.5 kg/m3. For the same molecule, the mass density ([2]; 283.15 K, x2 = 0.3973) was 857.59 ± 0.45 kg/m3, the mass density ([2]; 283.15 K, x2 = 0.499) was 886.71 ± 0.39 kg/m3 and the mass density ([2]; 283.15 K, x2 = 0.6003) was 916.64 ± 0.34 kg/m3. For the same molecule, the mass density ([2]; 283.15 K, x2 = 0.7063) was 949.05 ± 0.28 kg/m3, the mass density ([2]; 283.15 K, x2 = 0.8072) was 980.93 ± 0.22 kg/m3 and the mass density ([2]; 283.15 K, x2 = 0.9076) was 1013.82 ± 0.19 kg/m3. The mass density ([2]; 283.15 K, x2 = 0.9528) was 1029.04 ± 0.2 kg/m3, the surface tension liquid-gas ([2]; 298.15 K, x2 = 0.0615) was 22.37 ± 0.28 mN/m and the surface tension liquid-gas ([2]; 298.15 K, x2 = 0.121) was 22.56 ± 0.28 mN/m. The surface tension liquid-gas ([2]; 298.15 K, x2 = 0.1824) was 22.74 ± 0.28 mN/m, the surface tension liquid-gas ([2]; 298.15 K, x2 = 0.2656) was 23.01 ± 0.28 mN/m and the surface tension liquid-gas ([2]; 298.15 K, x2 = 0.4058) was 23.66 ± 0.28 mN/m. For the same molecule, the surface tension liquid-gas ([2]; 298.15 K, x2 = 0.5313) was 24.56 ± 0.29 mN/m, the surface tension liquid-gas ([2]; 298.15 K, x2 = 0.6376) was 25.57 ± 0.29 mN/m and the surface tension liquid-gas ([2]; 298.15 K, x2 = 0.7264) was 26.68 ± 0.3 mN/m. For the same molecule, the surface tension liquid-gas ([2]; 298.15 K, x2 = 0.806) was 27.93 ± 0.31 mN/m, the surface tension liquid-gas ([2]; 298.15 K, x2 = 0.902) was 30.03 ± 0.33 mN/m and the surface tension liquid-gas ([2]; 298.15 K, x2 = 0.9642) was 31.9 ± 0.35 mN/m. It also gave a mass density ([2]; 298.15 K, x2 = 0.0488) of 751.07 ± 0.63 kg/m3, a mass density ([2]; 298.15 K, x2 = 0.0945) of 762.02 ± 0.61 kg/m3 and a mass density ([2]; 298.15 K, x2 = 0.1818) of 783.72 ± 0.57 kg/m3. It also gave a mass density ([2]; 298.15 K, x2 = 0.2983) of 814.38 ± 0.51 kg/m3, a mass density ([2]; 298.15 K, x2 = 0.3959) of 841.12 ± 0.47 kg/m3 and a mass density ([2]; 298.15 K, x2 = 0.4962) of 869.6 ± 0.41 kg/m3. For the same molecule, the mass density ([2]; 298.15 K, x2 = 0.6067) was 902 ± 0.35 kg/m3, the mass density ([2]; 298.15 K, x2 = 0.7034) was 931.45 ± 0.3 kg/m3 and the mass density ([2]; 298.15 K, x2 = 0.811) was 965.2 ± 0.23 kg/m3. The mass density ([2]; 298.15 K, x2 = 0.9025) was 995.13 ± 0.18 kg/m3, the mass density ([2]; 298.15 K, x2 = 0.9506) was 1011.12 ± 0.17 kg/m3 and the surface tension liquid-gas ([2]; 313.15 K, x2 = 0.0615) was 20.14 ± 0.25 mN/m. It also gave a surface tension liquid-gas ([2]; 313.15 K, x2 = 0.121) of 20.45 ± 0.25 mN/m, a surface tension liquid-gas ([2]; 313.15 K, x2 = 0.1824) of 20.77 ± 0.26 mN/m and a surface tension liquid-gas ([2]; 313.15 K, x2 = 0.2656) of 21.15 ± 0.26 mN/m. It also gave a surface tension liquid-gas ([2]; 313.15 K, x2 = 0.4058) of 21.83 ± 0.26 mN/m, a surface tension liquid-gas ([2]; 313.15 K, x2 = 0.5313) of 22.62 ± 0.27 mN/m and a surface tension liquid-gas ([2]; 313.15 K, x2 = 0.6376) of 23.59 ± 0.27 mN/m. For the same molecule, the surface tension liquid-gas ([2]; 313.15 K, x2 = 0.7264) was 24.72 ± 0.28 mN/m, the surface tension liquid-gas ([2]; 313.15 K, x2 = 0.806) was 26.05 ± 0.3 mN/m and the surface tension liquid-gas ([2]; 313.15 K, x2 = 0.902) was 28.24 ± 0.32 mN/m. The surface tension liquid-gas ([2]; 313.15 K, x2 = 0.9642) was 30.03 ± 0.33 mN/m, the mass density ([2]; 313.15 K, x2 = 0.0449) was 734.98 ± 0.65 kg/m3 and the mass density ([2]; 313.15 K, x2 = 0.094) was 746.73 ± 0.63 kg/m3. The mass density ([2]; 313.15 K, x2 = 0.195) was 771.73 ± 0.58 kg/m3, the mass density ([2]; 313.15 K, x2 = 0.2962) was 798.13 ± 0.53 kg/m3 and the mass density ([2]; 313.15 K, x2 = 0.3969) was 825.52 ± 0.48 kg/m3. The mass density ([2]; 313.15 K, x2 = 0.4983) was 854.12 ± 0.43 kg/m3, the mass density ([2]; 313.15 K, x2 = 0.5994) was 883.66 ± 0.37 kg/m3 and the mass density ([2]; 313.15 K, x2 = 0.6987) was 913.64 ± 0.32 kg/m3. It also gave a mass density ([2]; 313.15 K, x2 = 0.8026) of 946.08 ± 0.26 kg/m3, a mass density ([2]; 313.15 K, x2 = 0.9066) of 979.72 ± 0.19 kg/m3 and a mass density ([2]; 313.15 K, x2 = 0.9482) of 993.49 ± 0.17 kg/m3.
